Values belong to the compound of their own block, whether it stands above or below them. Ends that are not written are not given here.
Columns and labels:
Prep [1] = biological target: T1, Prep (Mus musculus, UniProt Q9QUR6); test: label-free LC-MS peptidomics of CNS tissues, S17092 versus vehicle treated mice; assay type: in vivo; conditions: S17092 30 mg/kg i.p.
Prep [2] = test: CNS tissue; conditions: WT mice (C57BL/6), up to 4 hours
recombinant Prep = test: recombinant Prep; conditions: mouse, 25°C, up to 60 minutes
Prep [3] = biological target: T1, Prep; test: Prep inhibition with CGRP; assay type: biochemical

T1 sequence (Q9QUR6 whole entry): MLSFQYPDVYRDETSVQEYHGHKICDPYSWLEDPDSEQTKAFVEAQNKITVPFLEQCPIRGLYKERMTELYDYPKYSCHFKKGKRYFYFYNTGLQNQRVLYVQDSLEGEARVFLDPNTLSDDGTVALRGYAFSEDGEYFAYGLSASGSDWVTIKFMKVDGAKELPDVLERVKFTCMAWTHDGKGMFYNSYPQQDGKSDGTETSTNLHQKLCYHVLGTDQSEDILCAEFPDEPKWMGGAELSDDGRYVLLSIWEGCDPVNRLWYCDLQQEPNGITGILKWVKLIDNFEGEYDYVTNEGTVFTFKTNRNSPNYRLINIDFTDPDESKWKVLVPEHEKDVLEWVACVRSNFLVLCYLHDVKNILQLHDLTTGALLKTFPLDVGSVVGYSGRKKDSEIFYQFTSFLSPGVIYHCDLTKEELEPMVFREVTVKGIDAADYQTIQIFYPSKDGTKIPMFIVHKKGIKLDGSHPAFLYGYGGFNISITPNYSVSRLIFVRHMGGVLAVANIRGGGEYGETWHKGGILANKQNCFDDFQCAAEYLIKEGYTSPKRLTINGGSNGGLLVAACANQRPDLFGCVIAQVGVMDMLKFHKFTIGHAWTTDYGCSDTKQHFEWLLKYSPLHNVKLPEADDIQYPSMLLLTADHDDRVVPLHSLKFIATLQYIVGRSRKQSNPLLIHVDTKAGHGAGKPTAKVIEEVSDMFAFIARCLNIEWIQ

Compound: GGVVKDNFVPTNVGSEAF-NH2 [CGRP(20–37)]
Levels of Prep substrates in the spinal cord 1 hour and 4 hours after i.p. S17092 administration (Prep [1]): significantly elevated at 1 hour (gray bar) and 4 hours

fragment found (Prep [2]): Vgf(490–502)
Compound: APPEPVPPPRAAPAPTHV

fragment found (recombinant Prep): CGRP(30–37)
Compound: GGVVKDNFVPTNVGSEAF-NH2

IC50 (Prep [3]): 2000 nM
Compound: CC(C)C[C@H](NC(=O)CNC(=O)[C@H](C)NC(=O)[C@H](CC(C)C)NC(=O)[C@H](CCCNC(=N)N)NC(=O)[C@H](Cc1c[nH]cn1)NC(=O)[C@@H](NC(=O)[C@@H](NC(=O)[C@@H]1CSSC[C@H](NC(=O)[C@@H](N)CO)C(=O)N[C@@H](CC(N)=O)C(=O)N[C@@H]([C@@H](C)O)C(=O)N[C@@H](C)C(=O)N[C@@H]([C@@H](C)O)C(=O)N1)C(C)C)[C@@H](C)O)C(=O)N[C@@H](CC(C)C)C(=O)N[C@@H](CO)C(=O)N[C@@H](CCCNC(=N)N)C(=O)N[C@@H](CO)C(=O)NCC(=O)NCC(=O)N[C@H](C(=O)N[C@H](C(=O)N[C@@H](CCCCN)C(=O)N[C@@H](CC(=O)O)C(=O)N[C@@H](CC(N)=O)C(=O)N[C@@H](Cc1ccccc1)C(=O)N[C@H](C(=O)N1CCC[C@H]1C(=O)N[C@H](C(=O)N[C@@H](CC(N)=O)C(=O)N[C@H](C(=O)NCC(=O)N[C@@H](CO)C(=O)N[C@@H](CCC(=O)O)C(=O)N[C@@H](C)C(=O)N[C@@H](Cc1ccccc1)C(N)=O)C(C)C)[C@@H](C)O)C(C)C)C(C)C)C(C)C [CGRP(1–37), calcitonin gene-related peptide]

fragment found (Prep [2]): Penk(123–133)
Compound: MDELYPMEPEEEANGGEILA
